Reference: patent publication US20150010928A1, “MEANS AND METHODS FOR ASSESSING AN ENDOCRINE DISEASE OR DISORDER” (priority 2012, published 2015)
Marks after values point to notes of the source that are not given here.

System: female rats
Assay: Plasma metabolite profiling (GC-MS, LC-MS, SPE-LC-MS) in female rats dosed once daily over 28 days (OECD 407)
Type: in vivo, rat
Conditions: for Cholesterol / Choline plasmalogen No 02 / Lignoceric acid (C24:0) / Sphingomyelin (d18:1, C16:0) / Sphingomyelin (d18:2, C16:0) / erythro-Sphingosine (d18:1): high dose, Table 14a; for 3-O-Methylsphingosine (d18:1), ratio versus control / 5-O-Methylsphingosine (d18:1), ratio versus control / 16-Methylheptadecanoic acid, ratio versus control / 17-Methyloctadecanoic acid, ratio versus control / Arachidonic acid (C20:cis[5,8,11,14]4), ratio versus control / Behenic acid (C22:0), ratio versus control / Cholesterol, ratio versus control / Choline plasmalogen No 03, ratio versus control / Docosahexaenoic acid (C22:cis[4,7,10,13,16,19]6), ratio versus control / Galactose, lipid fraction, ratio versus control / Lignoceric acid (C24:0), ratio versus control / Lysophosphatidylcholine (C17:0), ratio versus control / Malate, ratio versus control / Nervonic acid (C24:cis[15]1), ratio versus control / Sphingomyelin (d18:2, C16:0), ratio versus control / Stearic acid (C18:0), ratio versus control / Tricosanoic acid (C23:0), ratio versus control / Uric acid, ratio versus control / alpha-Tocopherol, ratio versus control / erythro-Sphingosine (d18:1), ratio versus control / myo-Inositol, lipid fraction, ratio versus control / myo-Inositol-2-phosphate, lipid fraction, ratio versus control / threo-Sphingosine (d18:1), ratio versus control: female rats, plasma, low dose
Method: Each dose group in the studies consisted of five rats per sex. Additional groups of each 5 male and female animals served as controls. […] All animals of the animal population were kept under the same constant temperature (20-24±3° C.) and the same constant humidity (30-70%). The animals of the animal population were fed ad libitum. The food to be used was essentially free of chemical or microbial contaminants. Drinking water was also offered ad libitum. Accordingly, the water was free of chemical and microbial contaminants as laid down in the European Drinking Water Directive 98/83/EG. The illumination period was 12 hours light followed by 12 hours darkness (12 hours light, from 6:00 to 18:00, and 12 hours darkness, from 18:00 to 6:00). […] The test substances (compounds) in the Tables 1 to 17 below were dosed and administered as described in the Table 18.
In the morning of day 7, 14, and 28, blood was taken from the retroorbital venous plexus from fasted anaesthetized animals. From each animal, 1 ml of blood was collected with EDTA as anticoagulant. The samples were centrifuged for generation of plasma. All plasma samples were covered with a N2 atmosphere and then stored at −80° C. until analysis.
For mass spectrometry-based metabolite profiling analyses plasma samples were extracted and a polar and a non-polar (lipid) fraction was obtained. For GC-MS analysis, the non-polar fraction was treated with methanol under acidic conditions to yield the fatty acid methyl esters. Both fractions were further derivatised with O-methyl-hydroxyamine hydrochloride and pyridine to convert Oxogroups to O-methyloximes and subsequently with a silylating agent before analysis. In LC-MS analysis, both fractions were reconstituted in appropriate solvent mixtures. HPLC was performed by gradient elution on reversed phase separation columns. Mass spectrometric detection which allows target and high sensitivity MRM (Multiple Reaction Monitoring) profiling in parallel to a full screen analysis was applied as described in WO2003073464.
Steroids and their metabolites were measured by online SPE-LC-MS (Solid phase extraction-LC-MS).
Following comprehensive analytical validation steps, the data for each analyte were normalized against data from pool samples. These samples were run in parallel through the whole process to account for process variability. The significance of treatment group values specific for sex, treatmentduration and metabolite was determined by comparing means of the treated groups to the means of the respective untreated control groups using WELCH-test and quantified with treatment ratios versus control and p-values.
The identification of the most important biomarkers per toxicity pattern was done by a ranking of the analytes in the tables below. Therefore the metabolic changes in reference treatments of a given pattern (shown in the table) were compared with changes of the same metabolite in other unrelated treatments. […] The maximum absolute value of the respective TVALUE was taken to indicate the most important metabolite for the pattern.

With `CCC(=O)Oc1ccc(/C(CC)=C(\CC)c2ccc(OC(=O)CC)cc2)cc1` [Diethylstilboestrol dipropionate] the Cholesterol (f7) was 0.48 *, the “Choline plasmalogen No 02” value (f7) was 0.7 * and the “Lignoceric acid (C24:0)” value (f7) was 0.49 *. The “Sphingomyelin (d18:1, C16:0)” value (f7) was 0.72 *, the “Sphingomyelin (d18:2, C16:0)” value (f7) was 0.67 * and the “erythro-Sphingosine (d18:1)” value (f7) was 0.38 *. The Cholesterol (f14) was 0.69 *, the “Choline plasmalogen No 02” value (f14) was 0.75 * and the “Lignoceric acid (C24:0)” value (f14) was 0.6 *. For the same compound, the “Sphingomyelin (d18:1, C16:0)” value (f14) was 0.59^, the “Sphingomyelin (d18:2, C16:0)” value (f14) was 0.71 * and the “erythro-Sphingosine (d18:1)” value (f14) was 0.67 *. The Cholesterol (f28) was 0.58 *, the “Choline plasmalogen No 02” value (f28) was 0.67 * and the “Lignoceric acid (C24:0)” value (f28) was 0.59 *. The “Sphingomyelin (d18:1, C16:0)” value (f28) was 0.73 *, the “Sphingomyelin (d18:2, C16:0)” value (f28) was 0.58 * and the “erythro-Sphingosine (d18:1)” value (f28) was 0.46 *.

With `O=c1c(-c2ccc(O)cc2)coc2cc(O)cc(O)c12` [Genistein] the “3-O-Methylsphingosine (d18:1), ratio versus control” value (day 7) was 0.25 *, the “5-O-Methylsphingosine (d18:1), ratio versus control” value (day 7) was 0.27 * and the “16-Methylheptadecanoic acid, ratio versus control” value (day 7) was 0.64 *. The “17-Methyloctadecanoic acid, ratio versus control” value (day 7) was 0.7 *, the “Arachidonic acid (C20:cis[5,8,11,14]4), ratio versus control” value (from here on “Arachidonic acid … ratio versus control”) (day 7) was 0.59 * and the “Behenic acid (C22:0), ratio versus control” value (day 7) was 0.45 *. The “Cholesterol, ratio versus control” value (day 7) was 0.55 *, the “Choline plasmalogen No 03, ratio versus control” value (day 7) was 0.74 * and the “Docosahexaenoic acid (C22:cis[4,7,10,13,16,19]6), ratio versus control” value (from here on “Docosahexaenoic acid … ratio versus control”) (day 7) was 0.52 *. The “Galactose, lipid fraction, ratio versus control” value (day 7) was 0.51 *, the “Lignoceric acid (C24:0), ratio versus control” value (day 7) was 0.45 * and the “Lysophosphatidylcholine (C17:0), ratio versus control” value (day 7) was 0.8 *. The “Malate, ratio versus control” value (day 7) was 0.98 *, the “Nervonic acid (C24:cis[15]1), ratio versus control” value (day 7) was 0.45 * and the “Sphingomyelin (d18:2, C16:0), ratio versus control” value (day 7) was 0.55 *. The “Stearic acid (C18:0), ratio versus control” value (day 7) was 0.63 *, the “Tricosanoic acid (C23:0), ratio versus control” value (day 7) was 0.32 * and the “Uric acid, ratio versus control” value (day 7) was 0.73 *. The “alpha-Tocopherol, ratio versus control” value (day 7) was 0.5 *, the “erythro-Sphingosine (d18:1), ratio versus control” value (day 7) was 0.29 * and the “myo-Inositol, lipid fraction, ratio versus control” value (day 7) was 0.62 *. For the same compound, the “myo-Inositol-2-phosphate, lipid fraction, ratio versus control” value (day 7) was 0.48 *, the “threo-Sphingosine (d18:1), ratio versus control” value (day 7) was 0.33 * and the “3-O-Methylsphingosine (d18:1), ratio versus control” value (day 14) was 0.55 *. For the same compound, the “5-O-Methylsphingosine (d18:1), ratio versus control” value (day 14) was 0.58 *, the “16-Methylheptadecanoic acid, ratio versus control” value (day 14) was 0.72 * and the “17-Methyloctadecanoic acid, ratio versus control” value (day 14) was 0.73 *. For the same compound, the “Arachidonic acid … ratio versus control” value (day 14) was 0.66 *, the “Behenic acid (C22:0), ratio versus control” value (day 14) was 0.52 * and the “Cholesterol, ratio versus control” value (day 14) was 0.66 *. For the same compound, the “Choline plasmalogen No 03, ratio versus control” value (day 14) was 0.8 *, the “Docosahexaenoic acid … ratio versus control” value (day 14) was 0.71 * and the “Galactose, lipid fraction, ratio versus control” value (day 14) was 0.66 *. The “Lignoceric acid (C24:0), ratio versus control” value (day 14) was 0.53 *, the “Lysophosphatidylcholine (C17:0), ratio versus control” value (day 14) was 0.9 * and the “Malate, ratio versus control” value (day 14) was 0.75 *. For the same compound, the “Nervonic acid (C24:cis[15]1), ratio versus control” value (day 14) was 0.7 *, the “Sphingomyelin (d18:2, C16:0), ratio versus control” value (day 14) was 0.74 * and the “Stearic acid (C18:0), ratio versus control” value (day 14) was 0.83 *. For the same compound, the “Tricosanoic acid (C23:0), ratio versus control” value (day 14) was 0.65 *, the “Uric acid, ratio versus control” value (day 14) was 0.72 * and the “alpha-Tocopherol, ratio versus control” value (day 14) was 0.65 *. For the same compound, the “erythro-Sphingosine (d18:1), ratio versus control” value (day 14) was 0.61 *, the “myo-Inositol, lipid fraction, ratio versus control” value (day 14) was 0.76 * and the “myo-Inositol-2-phosphate, lipid fraction, ratio versus control” value (day 14) was 0.66^. For the same compound, the “threo-Sphingosine (d18:1), ratio versus control” value (day 14) was 0.65 *, the “3-O-Methylsphingosine (d18:1), ratio versus control” value (day 28) was 0.44 * and the “5-O-Methylsphingosine (d18:1), ratio versus control” value (day 28) was 0.47 *. The “16-Methylheptadecanoic acid, ratio versus control” value (day 28) was 0.69 *, the “17-Methyloctadecanoic acid, ratio versus control” value (day 28) was 0.86 * and the “Arachidonic acid … ratio versus control” value (day 28) was 0.46 *. For the same compound, the “Behenic acid (C22:0), ratio versus control” value (day 28) was 0.57 *, the “Cholesterol, ratio versus control” value (day 28) was 0.43 * and the “Choline plasmalogen No 03, ratio versus control” value (day 28) was 0.57 *. For the same compound, the “Docosahexaenoic acid … ratio versus control” value (day 28) was 0.43 *, the “Galactose, lipid fraction, ratio versus control” value (day 28) was 0.62 * and the “Lignoceric acid (C24:0), ratio versus control” value (day 28) was 0.44 *. The “Lysophosphatidylcholine (C17:0), ratio versus control” value (day 28) was 0.81 *, the “Malate, ratio versus control” value (day 28) was 0.66 * and the “Nervonic acid (C24:cis[15]1), ratio versus control” value (day 28) was 0.43 *. For the same compound, the “Sphingomyelin (d18:2, C16:0), ratio versus control” value (day 28) was 0.62 *, the “Stearic acid (C18:0), ratio versus control” value (day 28) was 0.66 * and the “Tricosanoic acid (C23:0), ratio versus control” value (day 28) was 0.42 *. The “Uric acid, ratio versus control” value (day 28) was 0.57 *, the “alpha-Tocopherol, ratio versus control” value (day 28) was 0.46 * and the “erythro-Sphingosine (d18:1), ratio versus control” value (day 28) was 0.51 *. For the same compound, the “myo-Inositol, lipid fraction, ratio versus control” value (day 28) was 0.75 *, the “myo-Inositol-2-phosphate, lipid fraction, ratio versus control” value (day 28) was 0.54 * and the “threo-Sphingosine (d18:1), ratio versus control” value (day 28) was 0.57 *.
